{
  "source": "patent US11794009B2",
  "about": "“Devices, systems and methods for treating urological and gastrointestinal disorders by electrical stimulation of the foot” (priority 2014, dated 2023)",
  "key": {"[1]": {"tested_on": "bladder overactivity induced by 0.25% acetic acid (AA) irritation", "assay": "Cystometrogram (CMG) bladder capacity during 0.25% acetic acid (AA) infusion in anesthetized cats, duloxetine / WAY100635 with and without foot stimulation", "assay_type": "in vivo, cat", "experimental": "Experiments were performed in a total of 8 adult anesthetized cats (5 female and 3 male cats between 3.1-4.4 kg). Each cat was anesthetized with isoflurane (2-3% in O2) during surgery and then changed to α-chloralose (65 mg/kg, supplemented as necessary) anesthesia during data collection. A pulse oximeter (9847V, Nonin Medical Inc., Plymouth, MN, USA) with the sensor attached to the tongue was used to monitor heart rate and blood oxygen saturation. Catheters were inserted in the right cephalic vein and right carotid artery for intravenous infusion of drugs and monitoring systemic blood pressure, respectively. Airway access was secured with a tracheostomy tube. Ureters were accessed through a midline abdominal incision and drained externally. The bladder was then cannulated with a double lumen catheter through a small cut at the proximal urethra to infuse saline or 0.25% AA and simultaneously measure bladder pressure. The proximal urethra was tied to prevent leakage. Fur was removed from the right hind foot and two self-adhesive pad electrodes (Grass FE10ND, Astro-Medical Inc., Mentor, OH, USA; diameter 1 cm) were attached to the skin at the bottom of the foot. One electrode was at the front of the foot and the other was at the heel (Chen G et al. Post-stimulation inhibitory effect on reflex bladder activity induced by activation of somatic afferent nerves in the foot. J Urol 187: 338-343, 2012; Tai C et al. Suppression of bladder overactivity by activation of somatic afferent nerves in the foot. BJU Int 107: 303-309, 2011).\nUniphasic rectangular pulses (5 Hz frequency, 0.2 ms pulsewidth) were delivered to the surface electrodes on the foot. Stimulation intensity threshold (T) was defined as the minimal intensity to induce a toe twitch. […] BJU Int 107: 303-309, 2011). Initially the bladder capacity was determined during cystometrograms (CMGs) by slowly infusing the bladder with saline. Multiple CMGs were performed to ensure reproducibility of the saline control capacity.\nBladder capacity was defined as the bladder volume threshold required to induce a micturition contraction of large amplitude (>30 cm H2O) and long duration (>20 seconds). Then, repeated CMGs were performed with infusion of 0.25% AA to irritate the bladder, activate nociceptive bladder afferent C-fibers, and induce bladder overactivity. When the bladder capacity stabilized, four CMGs were performed with AA infusion (Infusion rate=2 mL/min) prior to the administration of duloxetine: (1) control without stimulation, (2) during 2 T stimulation, (3) during 4 T stimulation, and (4) control without stimulation to determine any post-stimulation effect. The bladder was emptied at the end of each CMG and a 3-5 minute rest period was inserted between CMGs.\nAfter the pre-drug CMGs were performed, increasing cumulative doses (0.003, 0.01, 0.03, 0.1, 0.3, 1, and 3 mg/kg, i.v.) of duloxetine (Selleck Chemicals, Houston, TX) were given to determine the drug effect on bladder capacity. Ten minutes after administering each dose of duloxetine, the four CMGs were again performed with AA infusion under different conditions (control, 2 T stimulation, 4 T stimulation, and post-stimulation control). The four repeated CMGs were completed within 40-60 minutes. In 4 cats 50-70 minutes after giving the maximal dose of duloxetine (3 mg/kg), WAY100635 (Sigma-Aldrich, St. Louis, MO), a 5HT1A antagonist, was administered (0.5 mg/kg, i.v.) to block 5HT1A inhibitory autoreceptors on serotonergic neurons in the raphe nucleus in an attempt to enhance the serotonergic inhibitory influence of duloxetine on bladder reflexes. Five minutes after administration of WAY100635, we performed control CMGs without stimulation to examine the combined effect of WAY100635 and duloxetine on bladder capacity.\nFor each CMG, bladder capacity was normalized to the initial saline control capacity in the same animal, which allowed for comparisons between animals."}, "[2]": {"tested_on": "bladder overactivity induced by 0.25% acetic acid (AA) irritation", "details": "0.5168 mg/kg dose alone (references 20, 31, 36); cited from earlier work"}, "[3]": {"tested_on": "bladder overactivity induced by 0.25% acetic acid (AA) irritation", "assay": "Cystometrogram (CMG) bladder capacity during 0.25% acetic acid (AA) infusion in anesthetized cats, tolterodine with and without foot stimulation", "assay_type": "in vivo, cat", "details": "for bladder capacity: AA infusion", "experimental": "Experiments were conducted in a total of 6 adult cats (4 female and 2 male cats between 2.8-3.8 kg) under achloralose anesthesia (65 mg/kg, supplemented as necessary) after induction with isoflurane (2-3% in O2). Heart rate and blood oxygen level were monitored with a pulse oximeter (9847 V, Nonin Medical Inc., Plymouth, MN, USA) that was attached to the tongue. Systemic blood pressure was monitored via a catheter in the right carotid artery. These physiological parameters were monitored to ensure that the animal's vital functions remained relatively stable during the entire experiment. Drugs or fluids were administered through a catheter in the right cephalic vein and airway access was secured with a tracheostomy tube. Ureters were accessed through a midline abdominal incision and drained externally. The bladder was cannulated through the urethra with a double lumen catheter to infuse (1-2 ml/min) saline or 0.25% acetic acid (AA) via one lumen and measure bladder pressure via another lumen. A ligature was tied around the proximal urethra to prevent leakage. Fur was removed from the foot and two self-adhesive pad electrode (Grass FE10ND, Astro-Medical Inc., Mentor, OH, USA; diameter 1 cm) were attached to the skin at the bottom of the left hind foot. One electrode was at the front of the foot and the other was at the heel.\nUniphasic rectangular pulses (5 Hz frequency, 0.2 ms pulsewidth) were delivered to the skin electrodes on the foot. Threshold (T) stimulation intensity (3-16 V), which was defined as the minimal intensity to induce an observable toe twitch, was determined by slowly increasing the stimulation intensity at the beginning of the experiment. […] The initial bladder capacity was determined during a cystometrogram (CMG) by slowly infusing the bladder with saline. Bladder capacity was defined as the bladder volume threshold to induce a bladder reflex contraction of large amplitude (>30 cm H2O) and long duration (>20 seconds).\nMultiple CMGs were performed to determine reproducibility of the saline control capacity. Then, repeated CMGs were performed with AA infusion to irritate the bladder, activate nociceptive bladder C-fiber afferents, and induce bladder overactivity. Once the irritated bladder capacity was stabilized, four CMGs were performed prior to drug administration: 1. control CMG without stimulation; 2. CMG during 2 T stimulation; 3. CMG during 4 T stimulation; and 4. control CMG without stimulation to determine any post-stimulation effect. Increasing cumulative doses of tolterodine (tolterodine L-tartrate, Tocris Bioscience, Bristol, UK) were then administered (0.003, 0.01, 0.03, 0.1, and 0.3 mg/kg, i.v.). Ten minutes after administering each dose of tolterodine, the CMGs were performed again under the four different conditions (control, 2 T stimulation, 4 T stimulation, and post-stimulation control) to determine the drug effect on bladder capacity. The bladder was emptied after each CMG followed by a 3-5 min rest period to allow the distended detrusor to recover.\nFor the repeated CMG recordings, bladder capacity was normalized to the initial saline control capacity in the same animal to allow comparisons between animals. Capacity measurements under the same conditions were averaged and reported as mean±standard error of the mean (SEM). The mean amplitude of the bladder reflex contraction was also measured during each CMG and normalized to the AA control CMG to determine the effect of tolterodine on detrusor contractility. Statistical significance (p<0.05) was detected by ANOVA followed by Dunnett or Bonferroni post-tests."}},
  "data": [
    {"smiles": "COc1ccccc1N1CCN(CCN(C(=O)C2CCCCC2)c2ccccn2)CC1", "note": "[WAY100635]", "values": [
      {"measurement": "bladder capacity", "setting": "[1]; WAY100635 0.5168 mg/kg i.v. after final 3 mg/kg dose of duloxetine, no stimulation, N=4 cats, p=0.008", "value": "162.2±22.5 % of saline control"},
      {"measurement": "effect of WAY100635 alone on bladder capacity", "setting": "[2]", "value": "does not affect bladder capacity"}
    ]},
    {"smiles": "CNCC[C@H](Oc1cccc2ccccc12)c1cccs1", "note": "[duloxetine]", "values": [
      {"measurement": "effect on AA-induced overactivity", "setting": "[1]; 3 mg/kg i.v., absence of stimulation", "value": "completely removed AA-induced overactivity"},
      {"measurement": "post-stimulation effect on bladder capacity", "setting": "[1]; after 2 T and 4 T stimulation in duloxetine treated animals", "value": "absence of a post-stimulation effect"},
      {"measurement": "effect of foot stimulation on capacity when combined with duloxetine", "setting": "[1]; after doses 0.003 mg/kg to 0.03 mg/kg i.v.", "value": "significantly (p<0.05) increased capacity"},
      {"measurement": "effect of foot stimulation on capacity when combined with duloxetine", "setting": "[1]; after doses between 0.1 mg/kg and 3 mg/kg i.v.", "value": "did not significantly increase capacity"},
      {"measurement": "bladder capacity", "setting": "[1]; after final 3 mg/kg dose of duloxetine, before WAY100635, no stimulation, N=4 cats", "value": "117.3±17.6 % of saline control"},
      {"measurement": "effect on bladder capacity during AA infusion", "setting": "[1]; doses 0.1-3 mg/kg i.v., absence of stimulation", "value": "dose-dependently and significantly (p<0.05) increased bladder capacity"},
      {"measurement": "bladder capacity", "setting": "[1]; duloxetine 3 mg/kg i.v. (cumulative), AA infusion, absence of stimulation, N=8 cats", "value": "109±15.5 % of saline control"},
      {"measurement": "bladder capacity", "setting": "[1]; duloxetine 3 mg/kg i.v., AA infusion, during 2 T foot stimulation (5 Hz, 0.2 ms)", "value": "129.3±23.2 % of saline control"},
      {"measurement": "bladder capacity", "setting": "[1]; duloxetine 3 mg/kg i.v., AA infusion, during 4 T foot stimulation (5 Hz, 0.2 ms)", "value": "129.2±25.8 % of saline control"}
    ]},
    {"smiles": "Cc1ccc(O)c([C@H](CCN(C(C)C)C(C)C)c2ccccc2)c1", "note": "[tolterodine]", "values": [
      {"measurement": "effect on control bladder capacity", "setting": "[3]; 0.1 mg/kg i.v., absence of stimulation", "value": "not effective in significantly increasing control bladder capacity"},
      {"measurement": "amplitude of bladder reflex contractions", "setting": "[3]; 0.003-0.3 mg/kg i.v., control, 2 T or 4 T foot stimulation CMGs", "value": "did not alter the amplitude of bladder reflex contractions"},
      {"measurement": "total inhibitory effect of tolterodine combined with foot stimulation", "setting": "[3]; 2 T and 4 T foot stimulation, every dosage", "value": "additive"},
      {"measurement": "post-stimulation effect on bladder capacity", "setting": "[3]; after 2 T and 4 T stimulation, every dose of tolterodine", "value": "no post-stimulation effect was observed"},
      {"measurement": "effect on bladder capacity during AA infusion CMGs", "setting": "[3]; cumulative doses 0.003-0.3 mg/kg i.v., absence of foot stimulation", "value": "increased bladder capacity dose dependently"},
      {"measurement": "bladder capacity", "setting": "[3]; tolterodine 0.1 mg/kg i.v., 4 T foot stimulation", "value": "97.0±11.2 % of saline control"},
      {"measurement": "bladder capacity", "setting": "[3]; tolterodine 0.3 mg/kg i.v. (cumulative), absence of foot stimulation, N=6 cats", "value": "65.6±15.5 % of the saline control capacity"},
      {"measurement": "bladder capacity", "setting": "[3]; tolterodine 0.3 mg/kg i.v., 2 T foot stimulation", "value": "86.2±6.2 % of the saline control"},
      {"measurement": "bladder capacity", "setting": "[3]; tolterodine 0.3 mg/kg i.v., 4 T foot stimulation", "value": "107.9±10.6 % of the saline control"},
      {"measurement": "threshold pressure for inducing a micturition reflex", "setting": "[3]; tolterodine 0.3 mg/kg i.v., 5.0±1.3 cm H2O before treatment", "value": "8.1±1.4", "unit": "cm H2O"}
    ]}
  ]
}
